Data taken from US11426393B2, “Prolyl hydroxylase inhibitors and methods of use” (Akebia Therapeutics, Inc., priority 2006, dated 2022).

Assays:
HIF-1α = test: Mouse tissue HIF Western blot analysis; format: in vivo; details: mouse liver, FIG. 1
Procedure: (§1) Mouse Ischemic Hindlimb Study
(§2) All animal work is conducted in accordance with the Guide for the Care and Use of Laboratory Animals (National Academy of Sciences; Copyright©1996) and the Institutional Animal Care and Use Committee guidelines at Procter and Gamble Pharmaceuticals. We studied 9-10 week old male C57Bl/6 mice from Charles River Laboratory (Portage, Mich.). The mice are orally dosed with vehicle (aqueous carbonate buffer, 50 mM; pH 9.0) or compound 1 in vehicle at 50 mg/kg or 100 mg/kg. The animals are dosed three times: day 1 at 8 am and 5 pm, day 2 at […]. One hour after the first dose, unilateral arterial ligation is performed under anesthesia using isoflurane. The femoral artery is ligated proximal to the origin of the popliteal artery. The contralateral limb underwent a sham surgical procedure. Ligation is performed in an alternating fashion between right and left hindlimbs. Two hours after 8 am dosing on day 2, we obtained blood by ventricular stick while the mice are anesthetized with isoflurane. Serum samples for EPO analysis are obtained using gel clot serum separation tubes. Heart, liver, and gastrocnemius muscles are harvested, snap-frozen in liquid nitrogen, and stored in −80° C. until use.
Mouse Tissue HIF Western Blot Analysis
Tissues from mice stored at −80° C. are powdered with mortar and pestle chilled with liquid nitrogen. […]

EPO = test: Mouse serum EPO assay (mouse ischemic hindlimb study); format: in vivo
Procedure: as §1, §2
The mouse serum EPO is detected using Mouse Quantikine Erythropoietin ELISA kit from R&D Systems according to manufacturer's ins tractions.

VEGF = VEGF ELISA assay; format: cell-based; details: Homo sapiens; HEK293 cells; % of DFO stimulation
Procedure: HEK293 cells are seeded in 96-well poly-lysine coated plates at 20,000 ceils per well in DMEM (10% FBS, 1% NEAA, 0.1% glutamine). Following overnight incubation, the cells are washed with 100 uL of Opti-MEM (Gibco, Carlsbad, Calif.) to remove serum. Compound in DMSO is serially diluted (beginning with 100 μM) in Qpti-MEM and added to the cells. The conditioned media is analyzed for VEGF with a Quantikine human VEGF immunoassay kit (R&D Systems, Minneapolis, Minn.). Optical density measurements at 450 nm are recorded using the Spectra Max 250 (Molecular Devices, Sunnyvale, Calif.). Data defined as % of DFO stimulation is used to calculate EC50 values with GraphPad Prism 4 software (San Diego, Calif.).

human EGLN-1 = human EGLN-1 (Homo sapiens (Human), UniProt Q9GZT9); test: EGLN-1 activity assay (MALDI-TOF MS); format: biochemical; details: read-out: EGLIN1 IC50
Procedure: (§3) Data defined as percent conversion of substrate to product is analyzed in GraphPad Prism 4 to calculate IC50 values.

human EGLN-3 = human EGLN-3 (Homo sapiens (Human), UniProt Q9H6Z9); test: EGLN-3 activity assay (MALDI-TOF MS); format: biochemical; details: His-MBP-TVMV-EGLN-3 fusion; HIF-1α peptide 556-574 as substrate; read-out: EGLIN3 IC50
Procedure: as §3

Sequence of human EGLN-3 (Q9H6Z9 whole entry, the tested form may be a part): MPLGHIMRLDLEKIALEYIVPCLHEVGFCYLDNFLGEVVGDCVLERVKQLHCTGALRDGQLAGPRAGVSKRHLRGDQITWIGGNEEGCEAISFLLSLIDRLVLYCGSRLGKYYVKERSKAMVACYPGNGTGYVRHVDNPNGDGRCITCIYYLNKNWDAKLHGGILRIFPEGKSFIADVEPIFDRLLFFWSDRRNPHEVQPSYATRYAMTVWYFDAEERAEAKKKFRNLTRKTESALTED
Sequence of human EGLN-1 (Q9GZT9 179-426): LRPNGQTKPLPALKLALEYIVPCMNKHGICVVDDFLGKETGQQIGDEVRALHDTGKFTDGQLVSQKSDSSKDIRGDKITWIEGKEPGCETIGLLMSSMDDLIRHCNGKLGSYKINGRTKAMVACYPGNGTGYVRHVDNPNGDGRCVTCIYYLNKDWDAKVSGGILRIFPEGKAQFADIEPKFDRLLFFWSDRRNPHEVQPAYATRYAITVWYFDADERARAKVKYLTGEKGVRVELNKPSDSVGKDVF

Compound	EC50 (VEGF) [µM]	other results
O=C(O)CNC(=O)c1ncc(-c2cccc(Cl)c2)cc1O [{[5-(3-Chlorophenyl)-3-hydroxypyridine-2-carbonyl]amino}-acetic acid]	–	stabilization of HIF-1α (immunoblot analysis of nuclear extracts) (HIF-1α): stabilization of HIF-1α; erythropoietin level versus vehicle (EPO; mouse serum after oral dosing, FIG. 2): elevated versus vehicle
CC(C)Oc1ccc(-c2cnc(C(=O)NCC(=O)O)c(O)c2)cc1	> 100	–
COC(=O)CNC(=O)c1ncc(-c2ccccc2Cl)cc1O	7.7	–
COC(=O)CNC(=O)c1ncc(-c2cccc(C(=O)N3CCCC3)c2)cc1O	> 100	–
Cc1ccc(Cl)cc1-c1cnc(C(=O)NCC(=O)O)c(O)c1	3.3	–
CNC(=O)CNC(=O)c1ncc(-c2cccc(Cl)c2)cc1O	1.4	IC50 (human EGLN-1): 1.2 µM; IC50 (human EGLN-3): 1.3 µM; EPO response (EPO; in vivo response, mouse serum EPO): yes
N#Cc1cccc(-c2cnc(C(=O)NCC(=O)O)c(O)c2)c1	> 100	–
COC(=O)CNC(=O)c1ncc(-c2ccc(Cl)cc2)cc1O	> 100	–
CC(C)c1ccc(-c2cnc(C(=O)NCC(=O)O)c(O)c2)cc1	15	–
Cc1ccc(-c2ccc(C(=O)NCC(=O)O)c(O)c2)cc1	> 100	–
COC(=O)CNC(=O)c1ncc(-c2cccc(C(N)=O)c2)cc1O	50.1	–
O=C(O)CNC(=O)c1ncc(-c2cccc(C(=O)N3CCCC3)c2)cc1O	> 100	–
COC(=O)CNC(=O)c1ncc(-c2cccc(Cl)c2)cc1O	9.9	–
COC(=O)CNC(=O)c1ncc(-c2ccc(C)cc2)cc1O	8.2	–
O=C(O)CNC(=O)c1ncc(-c2cccc(Cl)c2)cc1O [drawing 122]	7.6	–
O=C(O)CNC(=O)c1ncc(-c2cccc(-c3nn[nH]n3)c2)cc1O	> 100	–
